Measurements taken from patent publication US9840513B2 (AbbVie S.à.r.l., priority 2015, dated 2017).
pEC50: −log10 of the molar value.

Legend:
[1] = molecular target: T1, F508delCFTR cell surface expression in CFBE41o-F508delCFTR-HRP cells (Homo sapiens, UniProt P13569, DEL508-508); assay: Cell Surface Expression-Horse Radish Peroxidase (CSE-HRP) Assay; format: cell-based; details: for pEC50: CFBE41o-F508delCFTR-HRP cells, 18-24 hours at 33° C., 8-point curve, highest concentration 20 μM; for Maximum % activity (%): maximum at any tested concentration, normalized to on-plate positive control (3 μM)
T1 construct: fused on or other part: Horseradish peroxidase (HRP) reporter inserted in the fourth exofacial (extracellular) loop of CFTR; expression is doxycycline-inducible
In short: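 Correctors incubated 18-24 h at 33 °C on doxycycline-induced (0.5 μg/mL, 72 h) CFBE41o-F508delCFTR-HRP cells, 3-fold series from 20 μM. After DPBS washes, luminol luminescence read; activity expressed relative to DMSO and a 3 μM positive control, EC50 fitted from triplicate plates.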

[2] = molecular target: T2, F508delCFTR in primary hBE cells with F508del/F508del CFTR mutation (Homo sapiens, UniProt P13569, DEL508-508); assay: Transepithelial Clamp Circuit on Human Bronchial Epithelial Cells Conductance Assay (hBE-TECC); format: cell-based; details: for pEC50: primary hBE cells F508del/F508del, 18-24 hours at 37° C., equivalent short circuit current, 6 concentrations
T2 construct: cells isolated from CF patients with the homozygous mutation; endogenous in cells; host or cells: primary human bronchial epithelial (hBE) cells from F508del/F508del CF patients
In short: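 Primary F508del/F508del hBE cells grown 35 days at air-liquid interface, treated basolaterally with correctors 18-24 h at 37° C. Ieq (Vt/Rt) at 36.5° C, pH 7.4, after benzamil, forskolin 10 μM, control potentiator, bumetanide; 6 concentrations normalized to DMSO and 3 μM positive-control corrector, EC50 by 4-parameter fit.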

[3] = relative to positive control (3 μM) coupled with control potentiator

T1 sequence (P13569 with tags, fused parts or gaps DEL508-508 limits assumed): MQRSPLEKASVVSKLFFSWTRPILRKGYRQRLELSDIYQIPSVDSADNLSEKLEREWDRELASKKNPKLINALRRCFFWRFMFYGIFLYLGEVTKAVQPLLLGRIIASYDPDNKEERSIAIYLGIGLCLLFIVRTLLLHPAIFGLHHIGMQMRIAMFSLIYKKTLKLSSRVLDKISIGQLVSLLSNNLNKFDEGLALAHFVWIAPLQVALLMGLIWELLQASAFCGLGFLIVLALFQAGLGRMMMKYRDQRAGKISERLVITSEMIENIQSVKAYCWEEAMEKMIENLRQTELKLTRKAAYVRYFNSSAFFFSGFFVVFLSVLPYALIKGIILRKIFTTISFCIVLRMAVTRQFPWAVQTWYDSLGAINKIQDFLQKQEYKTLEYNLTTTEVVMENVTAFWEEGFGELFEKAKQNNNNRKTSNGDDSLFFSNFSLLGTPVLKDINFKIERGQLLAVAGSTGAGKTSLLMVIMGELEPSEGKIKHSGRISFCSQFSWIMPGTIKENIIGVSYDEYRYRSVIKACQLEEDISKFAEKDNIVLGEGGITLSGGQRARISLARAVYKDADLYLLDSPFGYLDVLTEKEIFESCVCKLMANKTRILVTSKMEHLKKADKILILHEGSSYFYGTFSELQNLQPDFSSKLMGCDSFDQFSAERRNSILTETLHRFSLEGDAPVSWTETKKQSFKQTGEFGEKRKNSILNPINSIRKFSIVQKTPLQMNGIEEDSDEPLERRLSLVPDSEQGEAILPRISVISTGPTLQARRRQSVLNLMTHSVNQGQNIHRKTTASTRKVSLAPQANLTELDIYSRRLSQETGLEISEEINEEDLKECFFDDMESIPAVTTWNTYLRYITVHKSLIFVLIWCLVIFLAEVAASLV
T1 sequence (P13569 919-1480 limits assumed, stated change not applied): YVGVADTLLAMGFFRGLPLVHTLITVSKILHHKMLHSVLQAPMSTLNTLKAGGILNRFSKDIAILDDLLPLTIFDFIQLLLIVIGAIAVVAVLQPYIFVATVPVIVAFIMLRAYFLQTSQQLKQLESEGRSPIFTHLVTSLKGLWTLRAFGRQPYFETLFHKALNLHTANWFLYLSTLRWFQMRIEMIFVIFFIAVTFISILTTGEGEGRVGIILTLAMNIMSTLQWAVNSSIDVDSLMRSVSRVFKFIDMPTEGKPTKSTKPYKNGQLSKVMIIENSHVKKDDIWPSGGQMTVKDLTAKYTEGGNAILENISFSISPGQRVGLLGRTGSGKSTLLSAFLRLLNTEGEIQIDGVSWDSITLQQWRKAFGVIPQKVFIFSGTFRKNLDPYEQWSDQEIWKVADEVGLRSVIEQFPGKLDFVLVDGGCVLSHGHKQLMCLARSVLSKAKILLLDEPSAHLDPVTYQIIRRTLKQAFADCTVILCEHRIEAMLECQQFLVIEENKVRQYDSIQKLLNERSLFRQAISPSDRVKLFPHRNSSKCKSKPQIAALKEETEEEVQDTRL
T2 sequence (P13569 with tags, fused parts or gaps DEL508-508): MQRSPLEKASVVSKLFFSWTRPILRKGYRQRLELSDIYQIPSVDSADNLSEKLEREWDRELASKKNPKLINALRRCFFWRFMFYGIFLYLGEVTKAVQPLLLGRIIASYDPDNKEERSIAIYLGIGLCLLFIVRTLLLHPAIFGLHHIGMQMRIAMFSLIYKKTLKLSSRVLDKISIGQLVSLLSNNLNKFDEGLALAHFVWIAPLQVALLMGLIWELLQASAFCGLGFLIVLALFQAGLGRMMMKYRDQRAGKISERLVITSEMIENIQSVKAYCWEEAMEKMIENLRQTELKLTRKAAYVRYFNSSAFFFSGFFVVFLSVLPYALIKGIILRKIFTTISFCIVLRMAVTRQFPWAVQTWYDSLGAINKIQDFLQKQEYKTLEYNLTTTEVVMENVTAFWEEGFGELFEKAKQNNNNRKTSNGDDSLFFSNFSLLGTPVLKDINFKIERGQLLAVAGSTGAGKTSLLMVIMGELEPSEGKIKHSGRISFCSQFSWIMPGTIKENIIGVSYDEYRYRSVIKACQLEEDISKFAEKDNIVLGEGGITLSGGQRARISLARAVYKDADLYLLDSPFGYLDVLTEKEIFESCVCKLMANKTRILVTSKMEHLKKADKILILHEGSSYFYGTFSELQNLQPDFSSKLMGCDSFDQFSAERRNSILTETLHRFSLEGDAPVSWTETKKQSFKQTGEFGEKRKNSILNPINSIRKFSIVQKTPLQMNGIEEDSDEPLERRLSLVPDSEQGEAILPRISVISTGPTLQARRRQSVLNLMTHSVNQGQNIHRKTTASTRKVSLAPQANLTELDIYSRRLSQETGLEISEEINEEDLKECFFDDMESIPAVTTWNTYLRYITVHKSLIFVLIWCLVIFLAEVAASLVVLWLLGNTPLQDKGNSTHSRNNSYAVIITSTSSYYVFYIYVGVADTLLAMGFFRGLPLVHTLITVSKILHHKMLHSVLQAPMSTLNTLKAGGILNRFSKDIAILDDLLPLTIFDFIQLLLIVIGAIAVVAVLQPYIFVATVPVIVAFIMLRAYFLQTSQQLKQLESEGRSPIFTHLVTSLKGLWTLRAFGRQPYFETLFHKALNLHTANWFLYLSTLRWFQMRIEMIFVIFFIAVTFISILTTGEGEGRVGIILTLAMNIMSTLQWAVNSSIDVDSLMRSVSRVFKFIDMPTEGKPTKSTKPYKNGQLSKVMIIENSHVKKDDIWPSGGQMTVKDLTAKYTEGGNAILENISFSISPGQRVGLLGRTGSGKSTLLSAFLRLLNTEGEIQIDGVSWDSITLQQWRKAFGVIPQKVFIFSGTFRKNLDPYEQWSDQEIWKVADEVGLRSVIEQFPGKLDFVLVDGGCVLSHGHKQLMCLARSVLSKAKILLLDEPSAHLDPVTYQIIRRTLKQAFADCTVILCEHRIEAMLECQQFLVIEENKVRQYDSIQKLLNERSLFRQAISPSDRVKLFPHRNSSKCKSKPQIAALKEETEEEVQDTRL

For `COc1ccc2c(c1)O[C@@H]([C@H]1CC[C@H](C(=O)O)CC1)C[C@H]2NC(=O)[C@@]1(C)COc2cc3c(cc21)OC(F)(F)O3` [Example 155, trans-4-[(2R,4R)-4-{[(7R)-2,2-difluoro-7-methyl-6,7-dihydro-2H-furo[2,3-f][1,3]benzodioxole-7-carbonyl]amino}-7-methoxy-3,4-dihydro-2H-1-benzopyran-2-yl]cyclohexane-1-carboxylic acid], the pEC50 [1] was 7.04, the “Maximum % activity (%)” value [1] was 137% and the pEC50 [2] was 7.70. For the same compound, the “Maximum % activity (%)” value [2, 3] was 102%.

`COc1ccc2c(c1)O[C@@H](c1ccc(C(=O)O)cn1)C[C@H]2NC(=O)[C@@]1(C)COc2cc3c(cc21)OC(F)(F)O3` [Example 89, 6-[(2R,4R)-4-{[(7R)-2,2-difluoro-7-methyl-6,7-dihydro-2H-furo[2,3-f][1,3]benzodioxole-7-carbonyl]amino}-7-methoxy-3,4-dihydro-2H-1-benzopyran-2-yl]pyridine-3-carboxylic acid] was tested, and the pEC50 [1] was 8.00, the “Maximum % activity (%)” value [1] was 112% and the “Maximum % activity (%)” value ([2]; testing concentration 1 μM) was 84%.

For `C[C@]1(C(=O)N[C@@H]2C[C@H]([C@H]3CC[C@H](C(=O)O)CC3)Oc3cc(OC(F)(F)F)ccc32)COc2cc3c(cc21)OC(F)(F)O3` [Example 150, trans-4-[(2R,4R)-4-{[(7R)-2,2-difluoro-7-methyl-6,7-dihydro-2H-furo[2,3-f][1,3]benzodioxole-7-carbonyl]amino}-7-(trifluoromethoxy)-3,4-dihydro-2H-1-benzopyran-2-yl]cyclohexane-1-carboxylic acid], the pEC50 [1] was 7.59, the “Maximum % activity (%)” value [1] was 145% and the pEC50 [2] was 8.00. For the same compound, the “Maximum % activity (%)” value [2, 3] was 94%.

With `CC1(C(=O)Nc2cc(-c3ccccc3)nn(C[C@@H](O)CO)c2=O)COc2cc3c(cc21)OC(F)(F)O3` (stereo partly drawn) [Example 25, N-{2-[(2R)-2,3-dihydroxypropyl]-3-oxo-6-phenyl-2,3-dihydropyridazin-4-yl}-2,2-difluoro-7-methyl-6,7-dihydro-2H-furo[2,3-f][1,3]benzodioxole-7-carboxamide] the pEC50 [1] was 5.94, the “Maximum % activity (%)” value [1] was 82% and the “Maximum % activity (%)” value ([2]; testing concentration 10 μM) was 61%.
